Like-named read-outs stand apart in the source and are kept apart here.
Legend:
[1] = tested on: 3D7 strain of P. falciparum; assay: Host cell-mediated drug degradation: antiplasmodial activity of uRBC supernatants; format: cell-based, Plasmodium falciparum; conditions: for IC50: Plasmodium falciparum, 3D7, 0.16 h, 500 nM drug, 3D7, SYBR Green I, median ± SEM (AQ mean, 95% CI), read-out: IC50 of supernatants harvested at 0.16 h; for Fold changes (24 h/0.16 h): 3D7, ratio of IC50 at 24 h to IC50 at 0.16 h
Description: Each well of 96-well plates was filled with 125 µL drug (1000 nM) and 125 µL uninfected red blood cells (uRBC), which were mixed to obtain a final drug concentration of 500 nM and 2.5% or 1.0% hematocrit. The plates were incubated at 37°C in the standard gas mixture. After each time point (10 min, 6 h, and 24 h), supernatants were carefully harvested and stored at −80°C until use. […] Next, supernatants were diluted in a complete medium in six different dilutions and were aliquoted in new plates. The antimalarial activity of these supernatants and freshly dissolved drugs was determined in an asynchronous parasite culture of P. falciparum (3D7, D10, and W2 strains) for 72 h using the same method described above, and parasite viability was assessed by the pLDH ([38]) and SYBR Green I ([41]) methods. Only the experiments where the IC50 values of the supernatants harvested at 10 min were the same as those of the respective fresh drugs were considered for determining equivalent drug concentration. […] Decay in drug concentration was estimated by using the normalized slope values calculated from linear regression fits using the slope values of a standard curve as reference. Three independent experiments were performed using two replicates.
Figure S5: Data associated to Figure 3 in the main text of the manuscript. Panel A: Representative response-concentration curves of the antiplasmodial activity of supernatant-derived uRBC (2.5% hematocrit) harvested at indicated times (0.16, 6, and 24 h). Drug activity on parasite viability was determined 72 h after parasite incubation (3D7 strain, asynchronous). Values were subtracted from control (without treatment), transformed, and normalized to calculate nonlinear fit. Parasite viability was determined by SYBR Green I. Values are mean and error bars are the standard deviation of a single experiment, each concentration in duplicate. […] Footnotes: ^[a] Parasite viability was determined by SYBR Green I. ^[b^] Parasite viability was determined by pLDH readout. Values are median ± SEM of three independent experiments, each concentration in duplicate. ^[c^] […] These values are expressed as mean and 95% confidence interval (CI) of one experiment, each concentration in duplicate. […] Unpaired two-tailed t-test at 95% CI: *p <0.05; **p <0.01.

F32-ART parasites = assay: In vitro recrudescence assay; format: cell-based, Plasmodium falciparum; conditions: 700 nM, 48 h exposure; for Recrudescence time in days (median; range), Recrudescence assay F32-ART: monitored up to 30 days
Description: (§1) Parasites were washed with RPMI-1640 medium before being placed in drug-free culture conditions with 10% human serum. Parasitemia was determined daily by Giemsa-staining of blood smears until the cultures reached their initial parasitemia, defined as the recrudescence day. […] Two independent experiments were performed ([10]).

F32-TEM parasites = assay: In vitro recrudescence assay; format: cell-based, Plasmodium falciparum; conditions: 700 nM, 48 h exposure, monitored up to 30 days
Description: as §1

[2] = tested on: Ring stages of NF54 strain P. falciparum; assay: Antiplasmodial activity of drug combinations (pLDH, isobologram/FIC); format: cell-based; conditions: Plasmodium falciparum, NF54, ring stages NF54; mean (95% CI); tested in parallel with the combination of the same line; read-out: IC50, Drugs alone
Description: The activity of the drug combinations against the P. falciparum NF54 strain was determined as described above. In each experiment, drugs were tested alone and in combination. Twofold serial dilutions of the drug solutions were made using fixed molar ratios of 1:1, 1:3, and 3:1 for each combination and using two technical replicates (ranging from 200 to 1.0 nM). Parasite growth was determined by the pLDH method, as described above. IC50 values for each drug alone or in combination were determined, and an isobologram analysis was performed by plotting the fractional inhibitory concentrations (FIC) for each combination and its component drugs separately. Individual FIC values were calculated as the IC50 of the drug combination divided by the IC50 of the drug in isolation. A dashed line was plotted to indicate any additive effect and distinguish antagonism (above the dashed line) from synergism (below the dashed line). Three independent experiments were performed, each one containing two replicates. Each experiment was used to represent an isobologram analysis [mean and 95% confidence interval (CI)].
Values represent one experiment; each concentration of drug combination was tested in technical duplicate. Black dashed line indicates ΣFIC = 1 (absolute additivity). […] FIC index <1 is synergistic, ~1 is additive, and >1 is antagonistic. Nondetrimental interactions are 0.25 <ΣFIC <1.25.
^[a] Values are the mean and 95% confidence interval of one experiment for each concentration of compounds in duplicate.

[3] = tested on: F32-ART (resistant) early ring-stage parasites; assay: Ring-stage survival assay (RSA0-3h); format: cell-based, Plasmodium falciparum; conditions: 700 nM, 6 h pulse, 66 h growth
Description: Early ring-stage parasites (0–3 h post-invasion) of F32-ART and F32-TEM strains highly synchronized by Percoll-Sorbitol treatment were exposed to 700 nM of the drugs or 0.1% DMSO (control) for 6 h. Each drug was tested in duplicate. Parasite pellets were then washed in RPMI-1640 medium before being placed in drug-free culture conditions with 10% human serum and incubated for 66 h ([44]). Survival rates were assessed microscopically by two independent microscopists by counting the parasites in 10,000 RBCs. Three independent experiments were performed.

P. falciparum 3D7 strain = tested on: P. falciparum 3D7 strain; set-up: method as in PMID 31290221, PMID 34832911, PMID 38559731; conditions: asynchronous culture, SYBR Green I; read-out: IC50 (nM, median ± SEM) for P. falciparum 3D7 strain; cited from earlier work
P. falciparum Dd2 strain = tested on: P. falciparum Dd2 strain; set-up: method as in PMID 31290221, PMID 34832911, PMID 38559731; conditions: asynchronous culture, SYBR Green I; read-out: IC50 (nM, median ± SEM) for P. falciparum Dd2 strain; cited from earlier work
P. berghei-infected mice = tested on: P. berghei-infected mice; set-up: method as in PMID 31290221, PMID 34832911, PMID 38559731; conditions: Peters test; cited from earlier work

SMILES	IC50 ([1]; uRBC 1.0% hematocrit)	IC50 ([1]; uRBC 2.5% hematocrit)	loss in supernatant activity, supernatant harvested at 6 h ([1]; high hematocrit (2.5%))	loss in antiplasmodial activity of supernatants harvested at 6 h ([1]; low hematocrit (1%))	delay in recrudescence between F32-ART and F32-TEM (F32-ART parasites)	Recrudescence time in days (median; range), Recrudescence assay F32-ART (F32-ART parasites)	Recrudescence time in days (median; range), Recrudescence assay F32-TEM (F32-TEM parasites)	IC50 [2]	Fold changes (24 h/0.16 h) ([1]; uRBC 1.0% hematocrit)	Fold changes (24 h/0.16 h) ([1]; uRBC 2.5% hematocrit)	Fold changes (24 h/0.16 h) ([1]; uRBC 2.5% hematocrit, listed as LH70 (1))	Survival rate (%) from the RSA0-3h, F32-ART (resistant) ([3]; listed as 1)	Survival rate (%) from the RSA0-3h, F32-ART (resistant) ([3]; listed as hybrid 1)	IC50 (P. falciparum 3D7 strain)	IC50 (P. falciparum Dd2 strain)	In vivo parasitemia reduction (%) (P. berghei-infected mice)	Fold changes (24 h/0.16 h) ([1]; uRBC 2.5% hematocrit, listed as 163A (2))	Survival rate (%) from the RSA0-3h, F32-ART (resistant) ([3]; listed as 2)	Survival rate (%) from the RSA0-3h, F32-ART (resistant) ([3]; listed as hybrid 2)
C[C@H]1[C@@H](O)O[C@@H]2O[C@@]3(C)CC[C@H]4[C@H](C)CC[C@@H]1[C@@]24OO3 [DHA, dihydroartemisinin, reference compound]	4.5 ± 1.1 nM	6.7 ± 2.5 nM	fourfold	2 fold	8 days	7.5 (7–8) days	16.5 (15–18) days												
COCCOCCOCCOCCn1c(-c2ccc(-n3cc(-c4ccc(OC5OC6OC7(C)CCC8C(C)CCC(C5C)C68OO7)cc4)nn3)cc2)nc2ccccc21 (centres unmarked) [Hybrid 1]		1.3 ± 0.44 nM				11.5 (10– 13) days	> 20 (21–>30) days	2.2 nM	1.0 ± 0.23	3	3.6 ± 0.8	2.3 ± 0.7%	~2%	3 ± 0.2 nM	3 ± 0.3 nM	> 99%			
CC1CCC2C(C)C(OC(=O)CCC(=O)OCCNc3ccnc4cc(Cl)ccc34)OC3OC4(C)CCC1C32OO4 (centres unmarked) [Hybrid 2]	3.4 ± 0.33 nM	2.8 ± 0.51 nM				7.5 (7–8) days	16 (14–18) days	4.7 nM	1.1 ± 0.31	10				4.5 ± 0.5 nM	2.3 ± 0.6 nM	89.4 ± 1.5%	10.7 ± 4.1	14.8 ± 6%	~15%

Source: paper PMC11232401, “Characterization of antimalarial activity of artemisinin-based hybrid drugs” (Antimicrobial Agents and Chemotherapy, 2024)
